From the NIST ThermoML archive (doi:10.1021/je8002964) come the findings set out here.

Numbers after ± are expanded uncertainties.

For this data set the following is noted: 298.15 K; 101.33 kPa; Liquid.
A word on the mass density: it is mass per unit of volume. As to `OCC(F)(F)F` [2,2,2-trifluoroethanol], the mass density came to 1382.4 ± 1.2 kg/m3.
The same measure for `C1CCCCC1` [cyclohexane]: 774 ± 0.3 kg/m3; for `CCCCCCC` [heptane]: 680 ± 0.7 kg/m3.
Consider `CO` [methanol], for which the mass density is 787 ± 0.4 kg/m3.
The same measure for `CC(C)O` [propan-2-ol]: 781.4 ± 0.5 kg/m3.
